Measurements taken from US7642354B2, “Polycyclic pyrazines as potassium ion channel modulators” (Icagen, Inc., priority 2004, dated 2010).

Target: T1, recombinant human SK4 (hIK1 or hKCa4) channels (Homo sapiens, UniProt O15554+P0DP23)
T1 construct: host or cells: HEK 293
Assay: not given
Details: among the nine metals tested; cited from earlier work

SMILES | rank of potency in activating SK4 channels
[Ca+2] [calcium] | most potent metal

Same assay, conditions: applied to the inside of SK4 channel-expressing membrane patches; cited from earlier work

SMILES | activation of SK4 channels
[Ba+2] [Barium] | activated SK4 channels in a concentration-dependent manner
[Cd] [cadmium] | activated SK4 channels in a concentration-dependent manner
[Ca+2] [calcium] | activated SK4 channels in a concentration-dependent manner
[Co+2] [cobalt] | did not activate the SK4 channels
[Fe] [iron] | did not activate the SK4 channels
[Pb+2] [lead] | activated SK4 channels in a concentration-dependent manner
[Mg+2] [magnesium] | did not activate the SK4 channels
[Sr+2] [strontium] | activated SK4 channels in a concentration-dependent manner
[Zn+2] [zinc] | did not activate the SK4 channels

Target: hSK2 (Homo sapiens, UniProt Q9H2S1)
Assay: Assay for compound activity towards hSK channels (86Rb+ efflux)
Type: cell-based
Details: 86Rb+ efflux stimulated with calcium ionophore; drug 0.01 to 30 μM in EBSS; read-out: hSK2 Inhibitory Activity
Description: 18.1 Assay for Compound Activity Towards hSK Channels Cells expressing small conductance, calcium activated potassium channels, such as SK-like channels were loaded with ^86Rb^+ by culture in media containing ^86RbCl. Following loading, the culture media was removed and the cells were washed in EBSS to remove residual traces of ^86Rb^+. Cells were preincubated with the drug (0.01 to 30 μM in EBSS) and then ^86Rb^+ efflux was stimulated by exposing cells to EBSS solution supplemented with a calcium ionophore, such as ionomycin, in the continued presence of the drug. After a suitable efflux period, the EBSS/ionophore solution was removed from the cells and the ^86Rb^+ content was determined by Cherenkov counting (Wallac Trilux). Cells were then lysed with a SDS solution and the ^86Rb^+ content of the lysate was determined. Percent ^86Rb^+ efflux was calculated according to the following equation: (^86Rb^+ content in EBSS/(^86Rb^+ content in EBSS+^86Rb^+ content of the lysate))×100

SMILES | IC50 [µM]
O=[N+]([O-])c1ccc(Nc2cncc(-c3ccccn3)n2)nc1 [(5-Nitro-pyridin-2-yl)-(6-pyridin-2-yl-pyrazin-2-yl)-amine] | 3 to 30
CC(C)(C)c1nnc(Nc2cncc(-c3ccccn3)n2)s1 [(5-tert-Butyl-[1,3,4]thiadiazol-2-yl)-(6-pyridin-2-yl-pyrazin-2-yl)-amine] | 3 to 30
c1ccc(-c2cncc(Nc3nc[nH]n3)n2)nc1 [(6-Pyridin-2-yl-pyrazin-2-yl)-(1H-[1,2,4]triazol-3-yl)-amine] | 3 to 30
c1ccc(-c2cncc(Nc3nnn[nH]3)n2)nc1 [(6-Pyridin-2-yl-pyrazin-2-yl)-(1H-tetrazol-5-yl)-amine] | 3 to 30
c1ccc(-c2cncc(Nc3ccc(N4CCCC4)cn3)n2)nc1 [(6-Pyridin-2-yl-pyrazin-2-yl)-(5-pyrrolidin-1-yl-pyridin-2-yl)-amine] | < 0.05
c1ccc(-c2cncc(Nc3ncncn3)n2)nc1 [(6-Pyridin-2-yl-pyrazin-2-yl)-[1,3,5]triazin-2-yl-amine] | 3 to 30
c1ccc(-c2cncc(Nc3ccncn3)n2)nc1 [(6-Pyridin-2-yl-pyrazin-2-yl)-pyrimidin-4-yl-amine] | 3 to 30
COCCN(C)c1ccc(Nc2cncc(-c3ccccn3)n2)nc1 [N^5-(2-Methoxy-ethyl)-N^5-methyl-N^2-(6-pyridin-2-yl-pyrazin-2-yl)-pyridine-2,5-diamine] | < 0.05
O=C(c1ccccc1)c1nccnc1Nc1cncc(-c2ccccn2)n1 [Phenyl-[3-(6-pyridin-2-yl-pyrazin-2-ylamino)-pyrazin-2-yl]-methanone] | 3 to 30
c1ccc(Nc2cncc(-c3cc(N4CCCC4)ccn3)n2)nc1 [Pyridin-2-yl-[6-(4-pyrrolidin-1-yl-pyridin-2-yl)-pyrazin-2-yl]-amine] | 0.05 to 1
O=C(c1nccnc1Nc1cncc(-c2ccccn2)n1)N1CCCC1 [[3-(6-Pyridin-2-yl-pyrazin-2-ylamino)-pyrazin-2-yl]-pyrrolidin-1-yl-methanone] | 3 to 30
CN(C)c1ccc(-c2ccc(Nc3cncc(-c4ccccn4)n3)nc2)cc1 [[5-(4-Dimethylamino-phenyl)-pyridin-2-yl]-(6-pyridin-2-yl-pyrazin-2-yl)-amine] | 0.05 to 1
Clc1ccc(-c2ccc(Nc3cncc(-c4ccccn4)n3)nc2)s1 [[5-(5-Chloro-thiophen-2-yl)-pyridin-2-yl]-(6-pyridin-2-yl-pyrazin-2-yl)-amine] | 0.05 to 1
COc1cccc(-c2cncc(Nc3ccccn3)n2)n1 [[6-(6-Methoxy-pyridin-2-yl)-pyrazin-2-yl]-pyradin-2-yl-amine] | 0.05 to 1

Further lines, results first:

IC50 [µM] | SMILES
3 to 30 | Cc1cnn(-c2cncc(Nc3ccc(I)cn3)n2)c1 [(5-Iodo-pyridin-2-yl)-[6-(4-methyl-pyrazol-1-yl)-pyrazin-2-yl]-amine]
0.05 to 1 | Cc1cc(Nc2cncc(-c3ccccn3)n2)[nH]n1 [(5-Methyl-2H-pyrazol-3-yl)-(6-pyridin-2-yl-pyrazin-2-yl)-amine]
3 to 30 | Cc1nnc(Nc2cncc(-c3ccccn3)n2)s1 [(5-Methyl-[1,3,4]thiadiazol-2-yl)-(6-pyridin-2-yl-pyrazin-2-yl)-amine]
< 0.05 | c1ccc(-c2cncc(Nc3ccc(N4CCOCC4)cn3)n2)nc1 [(5-Morpholin-4-yl-pyridin-2-yl)-(6-pyridin-2-yl-pyrazin-2-yl)-amine]
0.05 to 1 | c1ccc(-c2ccc(Nc3cncc(-c4ccccn4)n3)nc2)cc1 [(5-Phenyl-pyridin-2-yl)-(6-pyridin-2-yl-pyrazin-2-yl)-amine]
3 to 30 | c1ccc(-c2ccc(Nc3cncc(-c4nccs4)n3)nc2)cc1 [(5-Phenyl-pyridin-2-yl)-(6-thiazol-2-yl-pyrazin-2-yl)-amine]
3 to 30 | c1ccc(-c2ccc(Nc3cncc(-c4cc(N5CCCC5)ccn4)n3)nc2)cc1 [(5-Phenyl-pyridin-2-yl)-[6-(4-pyrrolidin-1-yl-pyridin-2-yl)-pyrazin-2-yl]-amine]
3 to 30 | c1ccc(Nc2cncc(-c3cc4ccccc4s3)n2)nc1 [(6-Benzo[b]thiophen-2-yl-pyrazin-2-yl)-pyridin-2-yl-amine]
3 to 30 | c1ccc(Nc2cncc(-c3cc4ccccc4o3)n2)nc1 [(6-Benzofuran-2-yl-pyrazin-2-yl)-pyridin-2-yl-amine]
1 to 3 | Fc1cccc(Nc2cncc(-c3ccccn3)n2)n1 [(6-Fluoro-pyridin-2-yl)-(6-pyridin-2-yl-pyrazin-2-yl)-amine]
< 0.05 | c1ccc(-c2cncc(Nc3ccc(N4CCCCC4)cn3)n2)nc1 [(6-Pyridin-2-yl-pyrazin-2-yl)-(3,4,5,6-tetrahydro-2H-[1,3′]bipyridinyl-6′-yl)-amine]
3 to 30 | c1ccc(-c2cncc(Nc3cc(-c4cccs4)n[nH]3)n2)nc1 [(6-Pyridin-2-yl-pyrazin-2-yl)-(5-thiophen-2-yl-2H-pyrazol-3-yl)-amine]
0.05 to 1 | c1ccc(-c2cncc(Nc3ccc(-c4cccs4)cn3)n2)nc1 [(6-Pyridin-2-yl-pyrazin-2-yl)-(5-thiophen-2-yl-pyridin-2-yl)-amine]
0.05 to 1 | c1ccc(-c2cncc(Nc3ccc(-c4ccsc4)cn3)n2)nc1 [(6-Pyridin-2-yl-pyrazin-2-yl)-(5-thiophen-3-yl-pyridin-2-yl)-amine]
3 to 30 | c1ccc(-c2cncc(Nc3nccnn3)n2)nc1 [(6-Pyridin-2-yl-pyrazin-2-yl)-[1,2,4]triazin-3-yl-amine]
3 to 30 | c1ccc(-c2cncc(Nc3nncs3)n2)nc1 [(6-Pyridin-2-yl-pyrazin-2-yl)-[1,3,4]thiadiazol-2-yl-amine]

IC50 [µM] | SMILES
3 to 30 | c1ccc(-c2cncc(Nc3ncccn3)n2)nc1 [(6-Pyridin-2-yl-pyrazin-2-yl)-pyrimidin-2-yl-amine]
3 to 30 | c1ccc(-c2cncc(Nc3ccc4ccccc4n3)n2)nc1 [(6-Pyridin-2-yl-pyrazin-2-yl)-quinolin-2-yl-amine]
3 to 30 | c1ccc(-c2cncc(Nc3nccs3)n2)nc1 [(6-Pyridin-2-yl-pyrazin-2-yl)-thiazol-2-yl-amine]
3 to 30 | CCN(CC)C(=O)c1ccc(Nc2cncc(-c3ccccn3)n2)nc1 [N,N-Diethyl-6-(6-pyridin-2-yl-pyrazin-2-ylamino)-nicotinamide]
0.05 to 1 | Nc1ccc(Nc2cncc(-c3ccccn3)n2)nc1 [N^2-(6-Pyridin-2-yl-pyrazin-2-yl)-pyridine-2,5-diamine]
0.05 to 1 | c1ccc(-c2cncc(Nc3cnccn3)n2)nc1 [Pyrazin-2-yl-(6-pyridin-2-yl-pyrazin-2-yl)-amine]
< 0.05 | c1ccc(Nc2cncc(-c3ccccn3)n2)nc1 [Pyridin-2-yl-(6-pyridin-2-yl-pyrazin-2-yl)-amine]
0.05 to 1 | c1ccc(-c2cncc(Nc3ccc(-c4cccnc4)cn3)n2)nc1 [[3,3′]Bipyridinyl-6-yl-(6-pyridin-2-yl-pyrazin-2-yl)-amine]
0.05 to 1 | COc1ccccc1-c1ccc(Nc2cncc(-c3ccccn3)n2)nc1 [[5-(2-Methoxy-phenyl)-pyridin-2-yl]-(6-pyridin-2-yl-pyrazin-2-yl)-amine]
0.05 to 1 | Fc1cccc(-c2ccc(Nc3cncc(-c4ccccn4)n3)nc2)c1 [[5-(3-Fluoro-phenyl)-pyridin-2-yl]-(6-pyridin-2-yl-pyrazin-2-yl)-amine]
1 to 3 | CN1CCN(c2ccc(Nc3cncc(-c4ccccn4)n3)nc2)CC1 [[5-(4-Methyl-piperazin-1-yl)-pyridin-2-yl]-(6-pyridin-2-yl-pyrazin-2-yl)-amine]
0.05 to 1 | Cc1ccc(-c2ccc(Nc3cncc(-c4ccccn4)n3)nc2)o1 [[5-(5-Methyl-furan-2-yl)-pyridin-2-yl]-(6-pyridin-2-yl-pyrazin-2-yl)-amine]
3 to 30 | Cc1cnn(-c2cncc(Nc3ccc(-c4ccccc4)cn3)n2)c1 [[6-(4-Methyl-pyrazol-1-yl)-pyrazin-2-yl]-(5-phenyl-pyridin-2-yl)-amine]
0.05 to 1 | Cc1cnn(-c2cncc(Nc3ccc(N4CCCC4)cn3)n2)c1 [[6-(4-Methyl-pyrazol-1-yl)-pyrazin-2-yl]-(5-pyrrolidin-1-yl-pyridin-2-yl)-amine]
0.05 to 1 | Cc1ccnc(-c2cncc(Nc3ccccn3)n2)c1 [[6-(4-Methyl-pyridin-2-yl)-pyrazin-2-yl]-pyridin-2-yl-amine]
0.05 to 1 | Cc1ccc(-c2cncc(Nc3ccccn3)n2)nc1 [[6-(5-Methyl-pyridin-2-yl)-pyrazin-2-yl]-pyridin-2-yl-amine]
